Measurements as given in EP0124925A1, “Derivatives of d-2-(6-methoxy-2-naphthyl)-propionic acid having therapeutical activity, process for their preparation and pharmaceutical compositions containing them” (FARMA RESA SrL, priority 1983, dated 1984).
Where a name gives a salt, the structure may show the parent alone.

Key:
[1] = test system: Sprague-Dawaley male rats; assay: carrageenin induced oedema test (anti-inflammatory activity); type: in vivo; conditions: for ED33: Rattus norvegicus, carrageenin oedema inhibition
Experimental: This activity has been evaluated for the NXTP compound by the carrageenin induced oedema test, carried out in the manner known in the literature, in Sprague-Dawaley male rats, having a body weight of 180-200 g, the NXTP being administered to groups of 3 animals each at the dosages of 50, 100, 200 and 400 mg/kg, the results
being evalutaed in comparison with a control group.
Since in no caso an inhibition rate of 50% was attained, the value of ED 33 was calculated, it being 759 rng/kg (0,651 mM/kg).

[2] = test system: Swiss male albine mice; assay: acetic acid induced stretching or writhing inhibition test (analgesic activity); type: in vivo
Experimental: This test was carried out in Swiss male albine mice, having a body weight of 30-40 g through the "stretching or writhing" inhibition test, as induced by acetic acid, the test being carried out in a manner per se known from the literature.

[3] = test system: Sprague-Dawley male,rats; assay: yeast induced hyperpyrexy test (antipyretic activity); type: in vivo; conditions: Rattus norvegicus, tested dosages 100, 200 and 400 mg/kg
Experimental: This test has been carried out in the manner known from the literature in Sprague-Dawley male,rats, having a body weight of 190-220g, which were selected according to the rectal temperature which was of between 37.0 and 37.7°C.
The hyperpyrexy was induced by subcutaneous injection of 2.0 ml of a 7.5% suspension of yeast as prepared at the moment.
The tested dosages were 100, 200 and 400 mg/kg and the found ED33 value was 802 mg/kg.

[4] = mucolithic activity: viscosity of expectorate; conditions: 0.05M, one hour incubation at 37°C
Experimental: This test was carried out, in the manner known from the literature, in 13 ml samples of expectorate collected from hospitalized patients, and stored in a freezer at -20°C until the testing time.
At the tested concentration of the compound undergoing the experiment (0.05M) a viscosity reduction of 16% (29% to 13%) was found. ^7

[5] = solubility in water; type: physicochemical

SMILES	ED33 ([1]; same value in molar unit)	ED33 ([1]; tested dosages 50, 100, 200 and 400 mg/kg, calculated because 50% inhibition was not attained)	oedema inhibition (dose dependence) ([1]; dosages 50, 100, 200 and 400 mg/kg, versus control group)	inhibition rate ([1]; oedema inhibition at 50, 100, 200 and 400 mg/kg, 50% attained in no case)	ED50 ([2]; Mus musculus, sc, inhibition of contorsions induced by acetic acid, subcutaneous route, tested doses 50, 100 and 200 mg/kg)	inhibition of the number of contorsions (dose dependence) ([2]; doses 50, 100 and 200 mg/kg by subcutaneous route)	ED33 [3]	viscosity reduction (net of the 13% reduction with physiological solution) [4]	viscosity reduction (total) [4]	solubility in water [5]	pH ([5]; pH of the product dissolved in water)
COc1ccc2cc(C(C)C(=O)SC(C)C(=O)NCC(=O)O)ccc2c1 (racemic) [NXTP, propionylerytrhomycin salt of DL-2-(6-methoxy-2-napthyl)-propionyl-alpha-thio-propionylglycine]	651 µmol/kg	759 mg/kg	causes the oedema to be inhibited proportionally to the administered dose	< 50%	400 mg/kg	in a rate proportional to the administered doses	802 mg/kg	16%	29%		
COc1ccc2cc(C(C)C(=O)SC(C)C(=O)NCC(=O)O)ccc2c1 (single isomer, unassigned) [L(+)-lysine salt of the DL-2-(6-methoxy-2-napthyl)-alpha- th] [L(+)lysine salt of DL-2-(6-methoxy-2-napthyl)-propionyl-alpha-thio-propionylglycine acid]										perfectly soluble in water	
COc1ccc2cc(C(C)C(=O)SC(C)C(=O)NCC(=O)O)ccc2c1 (single isomer, unassigned) [arginine crystalline product, Arginine salt of DL-2-(6-methoxy-2-napthyl)propionyl-alpha-thio-propionylglycine]										soluble in water	7.3
